Reference: article PMC6133161, “Thiazoles with cyclopropyl fragment as antifungal, anticonvulsant, and anti-Toxoplasma gondii agents: synthesis, toxicity evaluation, and molecular docking study” (Medicinal Chemistry Research, 2018)
In brackets after ≈: the same amount, converted by molar mass. Read-outs that look alike come from different tables or passages of the source. Values belong to the compound of their own block, whether it stands above or below them.

Legend:
[1] = system: Toxoplasma gondii RH strain; assay: [3H]-uracil incorporation assay in VERO host cells; details: Toxoplasma gondii, Vero, read-out: Proliferation of Toxoplasma gondii RH strain ± SD
C. sake = assay: Broth microdilution MIC/MFC, clinical isolate; format: cell-based; details: C. sake clinical strain
Excerpt: (§1) In the study of antifungal activity of the compounds 3a–3j, 15 clinical strains of different species of yeasts from Candida species, namely C. albicans, C. dubliniensis C. famata, C. inconspicua, C. krusei, C. tropicalis, C. glabrata, C. lambica, C. kefyr, C. lusitaniae, C. parapsilosis, C. guilliermondii, C. lusitaniae, C. pulcherrima and C. sake were also used. These fungi were isolated by the author (from Department of Pharmaceutical Microbiology of Medical University in Lublin, Poland) from different clinical materials, e.g., from upper respiratory tract of hospitalized patients including cancer patients (i.e., with non-small cell lung cancer or hematological malignancies). Some patients were after pre-operative or post-operative chemotherapy (treated with etoposide or cis-platin given in doses according to the standard procedures), patients with chronic hepatitis C (undergoing peginterferon and ribavirin therapy or without antiviral therapy), patients with diabetes, elderly people, aged of 65 years old or older, staying in close population, such as a care centre and people staying outside the home care. The Ethical Committee of the Medical University of Lublin approved the study protocol (No. KE-0254/75/2011). The isolates were identified by standard diagnostic methods—biochemical microtest, e.g., API 20C AUX, ID 32C, API Candida (bioMérieux) on the basis of assimilation of various substrates. All the used microbial cultures were first subcultured on nutrient agar or Sabouraud agar for bacteria and fungi, respectively. The RPMI 1640 with MOPS (for fungi) were inoculated with the suspensions of fungal species. Microbial suspensions were prepared in sterile saline (0.85% NaCl) with an optical density of 0.5 McFarland standard scale (Wiegand et al. [2008]). Samples containing examined compounds were dissolved in dimethyl sulfoxide (DMSO). Furthermore, fungal suspensions were put onto Petri dishes with solid media containing 2 mg/ml of the tested compounds followed incubation under appropriate conditions. The inhibition of microbial growth was judged by comparison with a control culture prepared without any sample tested. Nystatin (Sigma) was used as a reference antifungal compound. Subsequently MIC minimal inhibitory concentration (MIC) of the compounds was examined by the microdilution broth method, using their two-fold dilutions in RPMI 1640 broth with MOPS prepared in 96-well polystyrene plates. Final concentrations of the compounds ranged from 1000 to 0.0038 µg/ml. Microbial suspensions were prepared in sterile saline with an optical density of 0.5 McFarland standard. Next fungal suspension was added per each well containing broth and various concentrations of the examined compounds. After incubation, the MIC was assessed spectrophotometric as the lowest concentration of the samples showing complete fungal growth inhibition. Appropriate DMSO, growth and sterile controls were carried out. The medium with no tested substances was used as a control (Wiegand et al. [2008]). The minimal fungicidal concentration (MFC) are defined as the lowest concentration of the compounds that is required to kill a particular fungal species. MFC was determined by removing the culture using for MIC determinations from each well and spotting onto appropriate agar medium. The plates were incubated. The lowest compounds concentration with no visible growth observed was assessed as a fungicidal concentration. All the experiments were repeated three times and representative data are presented.
(§2) The MFC/MIC ratios were calculated in order to determine fungicidal (MFC/MIC ≤ 4) or fungistatic (MFC/MIC > 4) effect of the tested compounds (O’Donnell et al. [2010]).

C. pulcherrima = assay: Broth microdilution MIC/MFC, clinical isolate; format: cell-based; details: C. pulcherrima clinical strain
Excerpt: as §1, §2

C. lusitaniae = assay: Broth microdilution MIC/MFC, clinical isolate; format: cell-based; details: C. lusitaniae clinical strain
Excerpt: as §1, §2

C. albicans = assay: Broth microdilution MIC/MFC, clinical isolate; format: cell-based; details: C. albicans clinical strain
Excerpt: as §1, §2

C. glabrata = assay: Broth microdilution MIC/MFC, clinical isolate; format: cell-based; details: C. glabrata clinical strain
Excerpt: as §1, §2

C. guilliermondii = assay: Broth microdilution MIC/MFC, clinical isolate; format: cell-based; details: C. guilliermondii clinical strain
Excerpt: as §1, §2

C. inconspicua = assay: Broth microdilution MIC/MFC, clinical isolate; format: cell-based; details: C. inconspicua clinical strain
Excerpt: as §1, §2

C. parapsilosis = assay: Broth microdilution MIC/MFC, clinical isolate; format: cell-based; details: C. parapsilosis clinical strain
Excerpt: as §1, §2

C. dubliniensis = assay: Broth microdilution MIC/MFC, clinical isolate; format: cell-based; details: C. dubliniensis clinical strain
Excerpt: as §1, §2

C. tropicalis = assay: Broth microdilution MIC/MFC, clinical isolate; format: cell-based; details: C. tropicalis clinical strain
Excerpt: as §1, §2

C. famata = assay: Broth microdilution MIC/MFC, clinical isolate; format: cell-based; details: C. famata clinical strain
Excerpt: as §1, §2

C. kefyr = assay: Broth microdilution MIC/MFC, clinical isolate; format: cell-based; details: C. kefyr clinical strain
Excerpt: as §1, §2

C. krusei = assay: Broth microdilution MIC/MFC, clinical isolate; format: cell-based; details: C. krusei clinical strain
Excerpt: as §1, §2

C. lambica = assay: Broth microdilution MIC/MFC, clinical isolate; format: cell-based; details: C. lambica clinical strain
Excerpt: as §1, §2

SMILES: FC(F)(F)c1ccc(-c2csc(N/N=C/C3CC3)n2)cc1 [Compound 3e, (E)-2-(2-(Cyclopropylmethylene)hydrazinyl)-4-(4-(trifluoromethyl)phenyl)thiazole]
- activity at 0.98 µg/mL [1]: 94.4 ± 6.92%
- activity at 1.95 µg/mL [1]: 100 ± 2.25%
- activity at 3.91 µg/mL [1]: 110 ± 4.37%

- MIC (C. sake; Fermentozyma sake, read-out: MIC): 0.48 µg/mL (≈ 1.69 µM)
- MIC (C. pulcherrima; read-out: MIC): 62.5 µg/mL (≈ 220 µM)
- MIC (C. lusitaniae; Clavispora lusitaniae, read-out: MIC): 0.48 µg/mL (≈ 1.69 µM)
- MIC (C. albicans; Candida albicans, read-out: MIC): 0.48 µg/mL (≈ 1.69 µM)
- MIC (C. glabrata; Nakaseomyces glabratus, read-out: MIC): 31.2 µg/mL (≈ 110 µM)
- MIC (C. guilliermondii; Meyerozyma guilliermondii, read-out: MIC): 0.98 µg/mL (≈ 3.45 µM)
- MIC (C. inconspicua; Pichia inconspicua, read-out: MIC): 0.48 µg/mL (≈ 1.69 µM)
- MIC (C. parapsilosis; Lodderomyces parapsilosis, read-out: MIC): 0.24 µg/mL (≈ 0.844 µM)
- MIC (C. dubliniensis; Candida dubliniensis, read-out: MIC): 0.015 µg/mL (≈ 0.0528 µM)
- MIC (C. tropicalis; Candida tropicalis, read-out: MIC): 0.24 µg/mL (≈ 0.844 µM)
- MIC (C. famata; Debaryomyces hansenii, read-out: MIC): 1.95 µg/mL (≈ 6.86 µM)
- MIC (C. kefyr; Kluyveromyces marxianus, read-out: MIC): 7.81 µg/mL (≈ 27.5 µM)
- MIC (C. krusei; Pichia kudriavzevii, read-out: MIC): 0.98 µg/mL (≈ 3.45 µM)
SMILES: [N-]=[N+]=Nc1ccc(-c2csc(N/N=C/C3CC3)n2)cc1 [Compound 3i, (E)-4-(4-Azidophenyl)-2-(2-(cyclopropylmethylene)hydrazinyl)thiazole]
- activity at 0.98 µg/mL [1]: 95.3 ± 10.6%
- activity at 1.95 µg/mL [1]: 93.3 ± 4.67%
- activity at 3.91 µg/mL [1]: 105 ± 2.24%
- activity at 7.81 µg/mL [1]: 92.2 ± 3.71%
- activity at 15.63 µg/mL [1]: 98.8 ± 4.29%
- MFC (C. sake; Fermentozyma sake, read-out: MFC): 7.81 µg/mL (≈ 27.5 µM)
- MFC (C. pulcherrima; read-out: MFC): > 1000 µg/mL
- MFC (C. lusitaniae; Clavispora lusitaniae, read-out: MFC): 1.95 µg/mL (≈ 6.86 µM)
- MFC (C. albicans; Candida albicans, read-out: MFC): 15.6 µg/mL (≈ 54.9 µM)
- MFC (C. glabrata; Nakaseomyces glabratus, read-out: MFC): > 1000 µg/mL
- MFC (C. guilliermondii; Meyerozyma guilliermondii, read-out: MFC): 15.6 µg/mL (≈ 54.9 µM)
- MFC (C. inconspicua; Pichia inconspicua, read-out: MFC): 0.98 µg/mL (≈ 3.45 µM)
- MFC (C. parapsilosis; Lodderomyces parapsilosis, read-out: MFC): 0.98 µg/mL (≈ 3.45 µM)
- MFC (C. dubliniensis; Candida dubliniensis, read-out: MFC): 0.12 µg/mL (≈ 0.422 µM)
- MFC (C. tropicalis; Candida tropicalis, read-out: MFC): 1.95 µg/mL (≈ 6.86 µM)
- MFC (C. famata; Debaryomyces hansenii, read-out: MFC): 7.81 µg/mL (≈ 27.5 µM)
- MFC (C. kefyr; Kluyveromyces marxianus, read-out: MFC): > 1000 µg/mL
- MFC (C. krusei; Pichia kudriavzevii, read-out: MFC): 7.81 µg/mL (≈ 27.5 µM)

SMILES: C[C@@H]1[C@H](O)[C@@H](C)/C=C/C=C/CC/C=C/C=C/C=C/C=C/C(O[C@H]2O[C@H](C)[C@@H](O)[C@H](N)[C@@H]2O)CC2O[C@](O)(CC(O)C(O)CCC(O)CC(O)CC(O)CC(=O)O[C@H]1C)CC(O)C2C(=O)O (stereo partly shown) [Nystatin, reference compound]
- MFC (C. sake): 0.12 µg/mL (≈ 0.13 µM)
- MFC/MIC (C. sake): 2
- MIC (C. sake): 0.06 µg/mL (≈ 0.0648 µM)
- MFC (C. pulcherrima): 0.24 µg/mL (≈ 0.259 µM)
- MFC/MIC (C. pulcherrima): 2
- MIC (C. pulcherrima): 0.12 µg/mL (≈ 0.13 µM)
- MFC (C. lusitaniae): 0.24 µg/mL (≈ 0.259 µM)
- MFC/MIC (C. lusitaniae): 2
- MIC (C. lusitaniae): 0.12 µg/mL (≈ 0.13 µM)
- MFC (C. albicans): 0.24 µg/mL (≈ 0.259 µM)
- MFC/MIC (C. albicans): 1
- MIC (C. albicans): 0.24 µg/mL (≈ 0.259 µM)
- MFC (C. glabrata): 0.48 µg/mL (≈ 0.518 µM)
- MFC/MIC (C. glabrata): 1
- MIC (C. glabrata): 0.48 µg/mL (≈ 0.518 µM)
- MFC (C. guilliermondii): 0.12 µg/mL (≈ 0.13 µM)
- MFC/MIC (C. guilliermondii): 2
- MIC (C. guilliermondii): 0.06 µg/mL (≈ 0.0648 µM)
- MFC (C. inconspicua): 0.48 µg/mL (≈ 0.518 µM)
- MFC/MIC (C. inconspicua): 4
- MIC (C. inconspicua): 0.12 µg/mL (≈ 0.13 µM)
- MFC (C. parapsilosis): 0.48 µg/mL (≈ 0.518 µM)
- MFC/MIC (C. parapsilosis): 4
- MIC (C. parapsilosis): 0.12 µg/mL (≈ 0.13 µM)
- MFC (C. dubliniensis): 0.12 µg/mL (≈ 0.13 µM)
- MFC/MIC (C. dubliniensis): 1
- MIC (C. dubliniensis): 0.12 µg/mL (≈ 0.13 µM)
- MFC (C. tropicalis): 0.06 µg/mL (≈ 0.0648 µM)
- MFC/MIC (C. tropicalis): 4
- MIC (C. tropicalis): 0.015 µg/mL (≈ 0.0162 µM)
- MFC (C. lambica): 0.98 µg/mL (≈ 1.06 µM)
- MFC/MIC (C. lambica): 2
- MIC (C. lambica): 0.48 µg/mL (≈ 0.518 µM)
- MFC (C. famata): 0.12 µg/mL (≈ 0.13 µM)
- MFC/MIC (C. famata): 2
- MIC (C. famata): 0.06 µg/mL (≈ 0.0648 µM)
- MFC (C. kefyr): 0.24 µg/mL (≈ 0.259 µM)
- MFC/MIC (C. kefyr): 2
- MIC (C. kefyr): 0.12 µg/mL (≈ 0.13 µM)
- MFC (C. krusei): 0.98 µg/mL (≈ 1.06 µM)
- MFC/MIC (C. krusei): 4
- MIC (C. krusei): 0.24 µg/mL (≈ 0.259 µM)
